{"source": "paper PMC7486443", "about": "“Generation of Phenothiazine with Potent Anti-TLK1 Activity for Prostate Cancer Therapy” (iScience, 2020)", "assay_in_all_cases": "biochemical", "set-up_in_all_cases": "DiscoverX KINOMEscan scanMAX competition binding panel, single concentration, percent of control; remaining binding: dose or concentration left out as unconfirmed", "conditions_in_all_cases": "KINOMEscan binding, percent of control; read-out: Table S4_SCANMAX REPORT - related to Fig. 1 / Percent Control", "key": {"FYN": {"biological_target": "FYN (Homo sapiens, UniProt P06241)", "sequence (P06241 whole entry)": "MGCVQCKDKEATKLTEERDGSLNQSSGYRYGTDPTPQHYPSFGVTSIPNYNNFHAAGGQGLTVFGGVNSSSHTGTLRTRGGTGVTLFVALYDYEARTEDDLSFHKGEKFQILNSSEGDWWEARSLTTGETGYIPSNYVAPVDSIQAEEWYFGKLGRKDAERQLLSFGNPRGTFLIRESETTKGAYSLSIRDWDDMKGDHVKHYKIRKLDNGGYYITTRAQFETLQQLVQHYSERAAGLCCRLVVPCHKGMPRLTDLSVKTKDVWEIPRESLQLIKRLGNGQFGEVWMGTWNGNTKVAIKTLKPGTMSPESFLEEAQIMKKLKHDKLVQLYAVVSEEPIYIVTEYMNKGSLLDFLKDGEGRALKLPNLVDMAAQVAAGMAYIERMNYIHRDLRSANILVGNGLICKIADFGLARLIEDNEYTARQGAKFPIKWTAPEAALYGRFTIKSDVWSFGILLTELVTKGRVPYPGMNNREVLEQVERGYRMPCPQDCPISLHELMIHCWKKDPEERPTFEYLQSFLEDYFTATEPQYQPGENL"}, "KIT(V559D,V654A)": {"biological_target": "KIT(V559D,V654A) (Homo sapiens, UniProt P10721, V559D/V654A)"}, "CAMK2B": {"biological_target": "CAMK2B (Homo sapiens, UniProt Q13554)", "sequence (Q13554 whole entry)": "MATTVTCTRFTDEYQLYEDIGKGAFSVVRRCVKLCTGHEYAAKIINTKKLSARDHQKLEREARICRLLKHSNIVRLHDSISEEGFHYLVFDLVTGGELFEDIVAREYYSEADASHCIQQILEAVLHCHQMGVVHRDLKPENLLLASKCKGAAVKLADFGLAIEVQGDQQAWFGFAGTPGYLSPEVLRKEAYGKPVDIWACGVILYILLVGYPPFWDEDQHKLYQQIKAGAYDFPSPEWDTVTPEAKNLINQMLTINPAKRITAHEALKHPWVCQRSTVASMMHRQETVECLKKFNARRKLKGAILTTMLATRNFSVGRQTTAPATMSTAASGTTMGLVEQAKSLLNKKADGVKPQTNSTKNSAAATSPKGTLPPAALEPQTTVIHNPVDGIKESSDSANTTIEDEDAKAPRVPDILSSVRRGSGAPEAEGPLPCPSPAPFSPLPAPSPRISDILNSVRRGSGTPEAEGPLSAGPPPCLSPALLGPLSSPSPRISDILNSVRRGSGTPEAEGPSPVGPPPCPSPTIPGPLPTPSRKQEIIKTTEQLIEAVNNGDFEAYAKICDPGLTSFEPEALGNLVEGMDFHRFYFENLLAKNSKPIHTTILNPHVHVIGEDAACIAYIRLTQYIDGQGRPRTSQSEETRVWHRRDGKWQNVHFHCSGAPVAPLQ"}, "[1]": {"biological_target": "T1, ABL1(T315I)-nonphosphorylated (Homo sapiens, UniProt P00519, T315I)", "T1 construct": "nonphosphorylated"}, "[2]": {"biological_target": "T2, JAK1(JH2domain-pseudokinase) (Homo sapiens, UniProt P23458)", "T2 construct": "JH2domain-pseudokinase"}, "ROCK1": {"biological_target": "ROCK1 (Homo sapiens, UniProt Q13464)"}, "PIK3CG": {"biological_target": "PIK3CG (Homo sapiens, UniProt P48736)"}, "KIT(D816V)": {"biological_target": "KIT(D816V) (Homo sapiens, UniProt P10721, D816V)"}, "HIPK3": {"biological_target": "HIPK3 (Homo sapiens, UniProt Q9H422)"}, "HPK1": {"biological_target": "T3, HPK1 (Homo sapiens, UniProt Q92918)", "T3 construct": "gene MAP4K1"}, "PCTK1": {"biological_target": "T4, PCTK1 (Homo sapiens, UniProt Q00536)", "T4 construct": "gene CDK16"}, "RET(V804M)": {"biological_target": "RET(V804M) (Homo sapiens, UniProt P07949, V804M)", "sequence (P07949 whole entry V804M)": "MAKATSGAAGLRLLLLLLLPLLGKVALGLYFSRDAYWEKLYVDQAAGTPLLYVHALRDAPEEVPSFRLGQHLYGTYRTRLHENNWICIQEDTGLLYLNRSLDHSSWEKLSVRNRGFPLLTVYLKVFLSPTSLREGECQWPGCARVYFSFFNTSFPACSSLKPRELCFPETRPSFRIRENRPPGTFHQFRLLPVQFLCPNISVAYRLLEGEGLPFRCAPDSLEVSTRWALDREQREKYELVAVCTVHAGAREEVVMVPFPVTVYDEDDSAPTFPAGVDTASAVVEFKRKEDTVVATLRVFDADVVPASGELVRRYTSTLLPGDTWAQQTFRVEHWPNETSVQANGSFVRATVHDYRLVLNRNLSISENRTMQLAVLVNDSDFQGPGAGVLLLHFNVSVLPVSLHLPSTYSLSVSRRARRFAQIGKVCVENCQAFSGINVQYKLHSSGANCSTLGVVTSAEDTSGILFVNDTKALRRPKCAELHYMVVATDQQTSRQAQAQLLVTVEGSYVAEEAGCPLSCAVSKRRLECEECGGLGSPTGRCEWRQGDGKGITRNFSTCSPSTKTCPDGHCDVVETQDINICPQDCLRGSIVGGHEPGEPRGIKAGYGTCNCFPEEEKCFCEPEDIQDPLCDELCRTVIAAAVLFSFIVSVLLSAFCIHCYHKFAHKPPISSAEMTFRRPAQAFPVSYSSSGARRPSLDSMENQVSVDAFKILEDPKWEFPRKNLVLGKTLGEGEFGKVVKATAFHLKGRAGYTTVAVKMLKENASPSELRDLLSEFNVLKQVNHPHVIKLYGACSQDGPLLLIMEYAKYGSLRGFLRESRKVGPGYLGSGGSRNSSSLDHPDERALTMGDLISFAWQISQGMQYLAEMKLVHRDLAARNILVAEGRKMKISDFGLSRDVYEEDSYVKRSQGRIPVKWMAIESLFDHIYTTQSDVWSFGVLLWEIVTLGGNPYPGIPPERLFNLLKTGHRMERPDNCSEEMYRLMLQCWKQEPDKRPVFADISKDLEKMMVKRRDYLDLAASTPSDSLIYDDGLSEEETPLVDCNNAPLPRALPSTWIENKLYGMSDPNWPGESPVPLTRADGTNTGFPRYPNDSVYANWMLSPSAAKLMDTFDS"}, "RIPK4": {"biological_target": "RIPK4 (Homo sapiens, UniProt P57078)", "sequence (P57078 whole entry)": "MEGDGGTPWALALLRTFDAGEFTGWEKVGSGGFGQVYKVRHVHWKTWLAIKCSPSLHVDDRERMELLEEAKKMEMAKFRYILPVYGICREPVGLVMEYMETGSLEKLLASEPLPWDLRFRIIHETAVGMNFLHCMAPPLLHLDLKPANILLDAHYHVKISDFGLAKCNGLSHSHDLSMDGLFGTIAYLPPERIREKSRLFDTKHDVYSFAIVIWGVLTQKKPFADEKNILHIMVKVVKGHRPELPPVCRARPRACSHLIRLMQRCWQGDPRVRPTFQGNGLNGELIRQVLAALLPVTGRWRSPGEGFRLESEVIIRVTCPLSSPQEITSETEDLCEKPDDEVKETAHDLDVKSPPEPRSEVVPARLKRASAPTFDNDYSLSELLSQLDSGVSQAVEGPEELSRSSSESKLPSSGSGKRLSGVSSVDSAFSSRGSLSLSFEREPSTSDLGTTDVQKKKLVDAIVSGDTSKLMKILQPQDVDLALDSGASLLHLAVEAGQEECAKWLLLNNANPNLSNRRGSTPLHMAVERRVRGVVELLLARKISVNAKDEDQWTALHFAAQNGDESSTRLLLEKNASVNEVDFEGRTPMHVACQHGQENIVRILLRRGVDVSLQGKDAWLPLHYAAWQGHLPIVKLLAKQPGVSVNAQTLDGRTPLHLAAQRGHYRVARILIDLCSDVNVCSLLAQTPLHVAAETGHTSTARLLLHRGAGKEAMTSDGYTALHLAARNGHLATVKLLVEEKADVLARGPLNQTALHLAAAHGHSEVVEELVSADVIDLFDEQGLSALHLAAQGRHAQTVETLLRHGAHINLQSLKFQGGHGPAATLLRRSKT"}, "[3]": {"biological_target": "T5, RPS6KA4(Kin.Dom.2-C-terminal) (Homo sapiens, UniProt O75676)", "T5 construct": "Kin.Dom.2-C-terminal"}, "IKK-epsilon": {"biological_target": "T6, IKK-epsilon (Homo sapiens, UniProt Q14164)", "T6 construct": "gene IKBKE"}, "SGK2": {"biological_target": "SGK2 (Homo sapiens, UniProt Q9HBY8)"}, "ALK(L1196M)": {"biological_target": "ALK(L1196M) (Homo sapiens, UniProt Q9UM73, L1196M)", "sequence (Q9UM73 whole entry L1196M)": "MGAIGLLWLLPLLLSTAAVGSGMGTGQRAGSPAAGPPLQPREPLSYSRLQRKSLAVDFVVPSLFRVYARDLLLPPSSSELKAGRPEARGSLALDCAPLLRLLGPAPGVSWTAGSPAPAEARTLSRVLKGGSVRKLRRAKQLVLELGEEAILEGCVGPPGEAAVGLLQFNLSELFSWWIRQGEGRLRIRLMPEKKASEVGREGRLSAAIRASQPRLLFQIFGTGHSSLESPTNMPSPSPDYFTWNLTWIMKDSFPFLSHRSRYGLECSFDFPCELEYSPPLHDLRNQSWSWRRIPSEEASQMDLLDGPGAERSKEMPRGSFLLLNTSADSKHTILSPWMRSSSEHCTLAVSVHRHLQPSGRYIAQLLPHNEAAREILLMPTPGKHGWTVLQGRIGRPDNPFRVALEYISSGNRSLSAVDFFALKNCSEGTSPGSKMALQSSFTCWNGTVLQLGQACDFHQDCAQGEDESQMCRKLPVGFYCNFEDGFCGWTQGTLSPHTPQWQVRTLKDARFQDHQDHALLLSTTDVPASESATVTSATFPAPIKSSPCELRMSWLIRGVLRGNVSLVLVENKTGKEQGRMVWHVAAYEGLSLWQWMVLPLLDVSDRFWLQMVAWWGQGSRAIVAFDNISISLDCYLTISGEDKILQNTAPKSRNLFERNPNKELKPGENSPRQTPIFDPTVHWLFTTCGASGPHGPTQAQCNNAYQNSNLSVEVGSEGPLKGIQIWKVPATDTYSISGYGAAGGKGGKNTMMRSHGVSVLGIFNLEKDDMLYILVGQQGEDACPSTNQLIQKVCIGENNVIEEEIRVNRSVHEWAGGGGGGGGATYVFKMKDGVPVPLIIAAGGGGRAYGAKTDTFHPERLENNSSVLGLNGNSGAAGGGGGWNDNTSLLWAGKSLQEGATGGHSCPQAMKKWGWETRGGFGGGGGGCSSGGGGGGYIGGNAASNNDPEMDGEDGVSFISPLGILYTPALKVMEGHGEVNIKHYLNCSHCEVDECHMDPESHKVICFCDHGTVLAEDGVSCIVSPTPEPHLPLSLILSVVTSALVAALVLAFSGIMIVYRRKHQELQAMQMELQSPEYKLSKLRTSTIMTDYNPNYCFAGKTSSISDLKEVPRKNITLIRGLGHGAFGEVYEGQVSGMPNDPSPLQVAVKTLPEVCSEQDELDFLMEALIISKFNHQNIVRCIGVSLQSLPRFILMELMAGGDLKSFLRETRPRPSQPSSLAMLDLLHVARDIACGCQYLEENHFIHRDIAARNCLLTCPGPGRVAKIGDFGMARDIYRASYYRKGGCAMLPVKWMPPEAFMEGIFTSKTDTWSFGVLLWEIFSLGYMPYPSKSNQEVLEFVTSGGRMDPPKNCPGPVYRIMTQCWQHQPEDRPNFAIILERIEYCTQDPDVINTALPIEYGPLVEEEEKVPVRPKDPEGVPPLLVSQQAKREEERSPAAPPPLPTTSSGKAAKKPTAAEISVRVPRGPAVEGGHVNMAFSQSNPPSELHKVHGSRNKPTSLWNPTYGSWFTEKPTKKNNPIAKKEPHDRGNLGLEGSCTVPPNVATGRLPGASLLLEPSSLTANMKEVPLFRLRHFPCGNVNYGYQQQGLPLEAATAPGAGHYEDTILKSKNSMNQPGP"}, "EPHB3": {"biological_target": "EPHB3 (Homo sapiens, UniProt P54753)"}}}
{"smiles": "c1ccc2c(c1)Sc1ccccc1N2CCN1CCOCC1", "note": "[J54]", "values": [{"measurement": "remaining binding", "setting": "FYN", "value": 100, "unit": "%"}, {"measurement": "remaining binding", "setting": "KIT(V559D,V654A)", "value": 99, "unit": "%"}, {"measurement": "remaining binding", "setting": "CAMK2B", "value": 93, "unit": "%"}, {"measurement": "remaining binding", "setting": "[1]", "value": 94, "unit": "%"}, {"measurement": "remaining binding", "setting": "[2]", "value": 99, "unit": "%"}, {"measurement": "remaining binding", "setting": "ROCK1", "value": 100, "unit": "%"}, {"measurement": "remaining binding", "setting": "PIK3CG", "value": 99, "unit": "%"}, {"measurement": "remaining binding", "setting": "KIT(D816V)", "value": 96, "unit": "%"}, {"measurement": "remaining binding", "setting": "HIPK3", "value": 100, "unit": "%"}, {"measurement": "remaining binding", "setting": "HPK1", "value": 100, "unit": "%"}, {"measurement": "remaining binding", "setting": "PCTK1", "value": 99, "unit": "%"}, {"measurement": "remaining binding", "setting": "RET(V804M)", "value": 100, "unit": "%"}, {"measurement": "remaining binding", "setting": "RIPK4", "value": 100, "unit": "%"}, {"measurement": "remaining binding", "setting": "[3]", "value": 94, "unit": "%"}, {"measurement": "remaining binding", "setting": "IKK-epsilon", "value": 75, "unit": "%"}, {"measurement": "remaining binding", "setting": "SGK2", "value": 90, "unit": "%"}, {"measurement": "remaining binding", "setting": "ALK(L1196M)", "value": 100, "unit": "%"}, {"measurement": "remaining binding", "setting": "EPHB3", "value": 100, "unit": "%"}]}
